Measurements: ChEMBL document CHEMBL3603791, “Role of polyol moiety of amphotericin B in ion channel formation and sterol selectivity in bilayer membrane” (Bioorg Med Chem, 2015)
Values after ≈ are worked out from the molar mass of the structure shown.

Assays:
Candida albicans = assay: Antimicrobial activity against Candida albicans ATCC 36082 incubated for 2 days at 35 degC by CLSI protocol based method; type: functional; conditions: ATCC 36082, 48 h
[1] = Toxicity in human erythrocytes assessed as induction of hemolysis incubated for 18 hrs; type: cell-based, Erythrocyte
[2] = Toxicity in human erythrocytes assessed as induction of hemolysis at 15 uM incubated for 18 hrs; type: cell-based, Erythrocyte; conditions: read-out: Activity
[3] = Induction of potassium influx in sterol-free and cholesterol and ergosterol-containing POPC liposomes at 32 uM by BCECF dye based fluorimetric assay; type: physicochemical

Row | MIC (Candida albicans) [µM] | Activity [3] | SMILES | HC50 at 18 h [1] [µM] | hemolysis at 18 h, 15 µM [2] [%]
1 | 2 (≈ 1.88 µg/mL) | Not Active | C[C@@H]1[C@H](O)[C@@H](C)/C=C/C=C/C=C/C=C/C=C/C=C/C=C/[C@H](O[C@@H]2O[C@H](C)[C@@H](O)[C@H](N)[C@@H]2O)C[C@@H]2O[C@](O)(C[C@@H](O)C[C@@H](O)[C@H](O)C(=O)C[C@@H](O)C[C@@H](O)CC(=O)O[C@H]1C)C[C@H](O)[C@H]2C(=O)O | > 15 | 10
2 | 4 (≈ 3.76 µg/mL) | Not Active | C[C@@H]1[C@H](O)[C@@H](C)/C=C/C=C/C=C/C=C/C=C/C=C/C=C/[C@H](O[C@@H]2O[C@H](C)[C@@H](O)[C@H](N)[C@@H]2O)C[C@@H]2O[C@](O)(C[C@@H](O)C[C@@H](O)[C@H](O)[C@H](O)C[C@@H](O)C[C@@H](O)CC(=O)O[C@H]1C)C[C@H](O)[C@H]2C(=O)O | 5.4 | 
3 | 1 (≈ 0.94 µg/mL) | Not Active | C[C@@H]1[C@H](O)[C@@H](C)/C=C/C=C/C=C/C=C/C=C/C=C/C=C/[C@H](O[C@@H]2O[C@H](C)[C@@H](O)[C@H](N)[C@@H]2O)C[C@@H]2O[C@](O)(C[C@@H](O)C[C@@H](O)[C@H](O)[C@@H](O)C[C@@H](O)C[C@@H](O)CC(=O)O[C@H]1C)C[C@H](O)[C@H]2C(=O)O | 6.9 | 

Row | SMILES | MIC (Candida albicans) [µM] | Activity [3] | HC50 at 18 h [1] [µM] | hemolysis at 18 h, 15 µM [2] [%]
4 | C[C@@H]1[C@H](O)[C@@H](C)/C=C/C=C/C=C/C=C/C=C/C=C/C=C/[C@H](O[C@@H]2O[C@H](C)[C@@H](O)[C@H](N)[C@@H]2O)C[C@@H]2O[C@](O)(C[C@@H](O)C[C@@H](O)[C@H](O)CC[C@@H](O)C[C@@H](O)CC(=O)O[C@H]1C)C[C@H](O)[C@H]2C(=O)O [AMPHOTERICIN B] | 0.25 (≈ 0.231 µg/mL) | Active | 3.2 | 
